Results: the NIST ThermoML archive (doi:10.1021/je2013704)
± gives the expanded uncertainty stated by the source.

Experiment: mn = molality of the nth substance listed, in mol/kg
Settings: Liquid, Vibrating tube method

[Cl-].[Cl-].[Mg+2] [magnesium chloride] + O
mass density [kg/m3]
Settings | 283.15 K | 298.12 K | 323.07 K | 348.04 K | 372.99 K | 397.97 K | 422.94 K | 447.94 K | 472.96 K
1050 kPa, m1 = 1 | 1074.73 ± 0.11 | 1070.86 ± 0.11 | 1061.56 ± 0.1 | 1049.32 ± 0.1 | 1034.76 ± 0.1 | 1017.83 ± 0.09 | 999.03 ± 0.09 | – | –
1050 kPa, m1 = 5 | – | 1298.01 ± 0.21 | 1288.53 ± 0.21 | 1278.25 ± 0.2 | 1267.42 ± 0.2 | 1255.66 ± 0.2 | 1243.3 ± 0.19 | 1230.19 ± 0.19 | –
1100 kPa, m1 = 3 | 1200.48 ± 0.17 | 1194.98 ± 0.16 | 1185.53 ± 0.16 | 1174.63 ± 0.16 | 1162.6 ± 0.15 | 1149.22 ± 0.15 | 1134.62 ± 0.14 | 1118.93 ± 0.14 | –
10020 kPa, m1 = 1 | 1078.32 ± 0.14 | 1074.43 ± 0.13 | 1065.03 ± 0.13 | 1052.8 ± 0.12 | 1038.36 ± 0.11 | 1021.72 ± 0.1 | 1003.28 ± 0.09 | 982.73 ± 0.11 | 960.31 ± 0.14
10020 kPa, m1 = 5 | – | 1300.39 ± 0.35 | 1290.86 ± 0.34 | 1280.63 ± 0.33 | 1269.83 ± 0.32 | 1258.16 ± 0.31 | 1245.98 ± 0.3 | 1232.81 ± 0.29 | 1219.23 ± 0.29
10100 kPa, m1 = 3 | 1203.26 ± 0.26 | 1197.76 ± 0.25 | 1188.36 ± 0.24 | 1177.48 ± 0.23 | 1165.51 ± 0.22 | 1152.27 ± 0.21 | 1137.91 ± 0.2 | 1122.27 ± 0.19 | 1105.72 ± 0.2
19970 kPa, m1 = 1 | 1082.31 ± 0.18 | 1078.17 ± 0.17 | 1068.73 ± 0.16 | 1056.56 ± 0.14 | 1042.33 ± 0.13 | 1025.91 ± 0.11 | 1007.77 ± 0.1 | 987.82 ± 0.11 | 965.92 ± 0.14
19970 kPa, m1 = 5 | – | 1302.84 ± 0.5 | 1293.39 ± 0.48 | 1283.18 ± 0.47 | 1272.48 ± 0.45 | 1260.88 ± 0.44 | 1248.69 ± 0.42 | 1235.76 ± 0.41 | 1222.3 ± 0.4
20100 kPa, m1 = 3 | 1206.45 ± 0.36 | 1200.84 ± 0.35 | 1191.36 ± 0.34 | 1180.55 ± 0.32 | 1168.64 ± 0.3 | 1155.47 ± 0.29 | 1141.36 ± 0.27 | 1126 ± 0.25 | 1109.63 ± 0.24
29900 kPa, m1 = 1 | 1086.21 ± 0.25 | 1081.96 ± 0.21 | 1072.46 ± 0.19 | 1060.31 ± 0.17 | 1046.17 ± 0.14 | 1029.97 ± 0.11 | 1012.16 ± 0.08 | 992.59 ± 0.08 | 971.25 ± 0.13
29900 kPa, m1 = 5 | – | 1305.37 ± 0.65 | 1295.97 ± 0.63 | 1285.71 ± 0.61 | 1275.12 ± 0.59 | 1263.46 ± 0.57 | 1251.46 ± 0.55 | 1238.61 ± 0.53 | 1225.27 ± 0.52
30100 kPa, m1 = 3 | 1209.48 ± 0.47 | 1203.93 ± 0.46 | 1194.33 ± 0.44 | 1183.56 ± 0.42 | 1171.77 ± 0.39 | 1158.76 ± 0.37 | 1144.67 ± 0.34 | 1129.62 ± 0.32 | 1113.5 ± 0.3
39830 kPa, m1 = 1 | 1090.04 ± 0.29 | 1085.7 ± 0.26 | 1076 ± 0.23 | 1063.92 ± 0.2 | 1049.91 ± 0.17 | 1033.96 ± 0.14 | 1016.47 ± 0.1 | 997.27 ± 0.08 | 976.5 ± 0.13
39830 kPa, m1 = 5 | – | 1307.91 ± 0.81 | 1298.44 ± 0.79 | 1288.26 ± 0.76 | 1277.64 ± 0.74 | 1266.15 ± 0.71 | 1254.16 ± 0.68 | 1241.42 ± 0.66 | 1228.28 ± 0.64
40100 kPa, m1 = 3 | 1212.45 ± 0.58 | 1206.91 ± 0.56 | 1197.32 ± 0.54 | 1186.6 ± 0.51 | 1174.82 ± 0.49 | 1162.02 ± 0.46 | 1147.96 ± 0.42 | 1133.07 ± 0.39 | 1117.27 ± 0.37
49760 kPa, m1 = 1 | 1093.73 ± 0.33 | 1089.34 ± 0.32 | 1079.49 ± 0.29 | 1067.47 ± 0.25 | 1053.59 ± 0.22 | 1037.86 ± 0.17 | 1020.62 ± 0.13 | 1001.73 ± 0.1 | 981.41 ± 0.15
49760 kPa, m1 = 5 | – | 1310.34 ± 0.97 | 1300.8 ± 0.94 | 1290.69 ± 0.91 | 1280.15 ± 0.88 | 1268.74 ± 0.85 | 1256.84 ± 0.82 | 1244.17 ± 0.79 | 1231.18 ± 0.76
50100 kPa, m1 = 3 | 1215.49 ± 0.69 | 1209.79 ± 0.68 | 1200.25 ± 0.65 | 1189.47 ± 0.61 | 1177.87 ± 0.58 | 1165.1 ± 0.54 | 1151.23 ± 0.51 | 1136.51 ± 0.47 | 1120.96 ± 0.44
59680 kPa, m1 = 1 | 1097.42 ± 0.39 | 1092.83 ± 0.37 | 1082.98 ± 0.34 | 1070.97 ± 0.3 | 1057.17 ± 0.25 | 1041.6 ± 0.2 | 1024.61 ± 0.15 | 1006.15 ± 0.11 | 986.2 ± 0.14
59680 kPa, m1 = 5 | – | 1312.81 ± 1.1 | 1303.27 ± 1.1 | 1293.17 ± 1.1 | 1282.6 ± 1 | 1271.25 ± 0.99 | 1259.41 ± 0.95 | 1246.88 ± 0.92 | 1234.02 ± 0.88
60100 kPa, m1 = 3 | 1218.46 ± 0.81 | 1212.66 ± 0.79 | 1203.13 ± 0.76 | 1192.42 ± 0.72 | 1180.77 ± 0.68 | 1168.09 ± 0.64 | 1154.39 ± 0.59 | 1139.92 ± 0.55 | 1124.6 ± 0.51
68120 kPa, m1 = 1 | 1100.57 ± 0.44 | 1095.78 ± 0.42 | 1085.82 ± 0.38 | 1073.88 ± 0.34 | 1060.13 ± 0.29 | 1044.71 ± 0.23 | 1027.95 ± 0.17 | 1009.73 ± 0.12 | 990.1 ± 0.13
68120 kPa, m1 = 5 | – | 1314.82 ± 1.3 | 1305.22 ± 1.2 | 1295.26 ± 1.2 | 1284.68 ± 1.2 | 1273.36 ± 1.1 | 1261.6 ± 1.1 | 1249.11 ± 1 | 1236.38 ± 0.99
68600 kPa, m1 = 3 | 1220.98 ± 0.91 | 1215.18 ± 0.89 | 1205.42 ± 0.85 | 1194.89 ± 0.81 | 1183.21 ± 0.77 | 1170.63 ± 0.72 | 1157.07 ± 0.67 | 1142.62 ± 0.62 | 1127.48 ± 0.57
